Molecules are shown by their SMILES. Values joined by “and” are separate entries in the source; they are usually repeats but may differ in a detail not shown here. Equal entries are not always repeated. “Also recorded” adds a separate entry of the source. Where two headings read alike, the source gives them in different places.

Results on 5 compounds are retold here after US8158674B2, “Chalcogenoxanthylium dyes for purging blood pathogens and for photodynamic therapy” (The Research Foundation of State University of New York, priority 2004, dated 2012).

The target in data set [1] is Pgp (Homo sapiens, UniProt P08183). As to conditions: cited from earlier work.
Sequence of Pgp (P08183 whole entry): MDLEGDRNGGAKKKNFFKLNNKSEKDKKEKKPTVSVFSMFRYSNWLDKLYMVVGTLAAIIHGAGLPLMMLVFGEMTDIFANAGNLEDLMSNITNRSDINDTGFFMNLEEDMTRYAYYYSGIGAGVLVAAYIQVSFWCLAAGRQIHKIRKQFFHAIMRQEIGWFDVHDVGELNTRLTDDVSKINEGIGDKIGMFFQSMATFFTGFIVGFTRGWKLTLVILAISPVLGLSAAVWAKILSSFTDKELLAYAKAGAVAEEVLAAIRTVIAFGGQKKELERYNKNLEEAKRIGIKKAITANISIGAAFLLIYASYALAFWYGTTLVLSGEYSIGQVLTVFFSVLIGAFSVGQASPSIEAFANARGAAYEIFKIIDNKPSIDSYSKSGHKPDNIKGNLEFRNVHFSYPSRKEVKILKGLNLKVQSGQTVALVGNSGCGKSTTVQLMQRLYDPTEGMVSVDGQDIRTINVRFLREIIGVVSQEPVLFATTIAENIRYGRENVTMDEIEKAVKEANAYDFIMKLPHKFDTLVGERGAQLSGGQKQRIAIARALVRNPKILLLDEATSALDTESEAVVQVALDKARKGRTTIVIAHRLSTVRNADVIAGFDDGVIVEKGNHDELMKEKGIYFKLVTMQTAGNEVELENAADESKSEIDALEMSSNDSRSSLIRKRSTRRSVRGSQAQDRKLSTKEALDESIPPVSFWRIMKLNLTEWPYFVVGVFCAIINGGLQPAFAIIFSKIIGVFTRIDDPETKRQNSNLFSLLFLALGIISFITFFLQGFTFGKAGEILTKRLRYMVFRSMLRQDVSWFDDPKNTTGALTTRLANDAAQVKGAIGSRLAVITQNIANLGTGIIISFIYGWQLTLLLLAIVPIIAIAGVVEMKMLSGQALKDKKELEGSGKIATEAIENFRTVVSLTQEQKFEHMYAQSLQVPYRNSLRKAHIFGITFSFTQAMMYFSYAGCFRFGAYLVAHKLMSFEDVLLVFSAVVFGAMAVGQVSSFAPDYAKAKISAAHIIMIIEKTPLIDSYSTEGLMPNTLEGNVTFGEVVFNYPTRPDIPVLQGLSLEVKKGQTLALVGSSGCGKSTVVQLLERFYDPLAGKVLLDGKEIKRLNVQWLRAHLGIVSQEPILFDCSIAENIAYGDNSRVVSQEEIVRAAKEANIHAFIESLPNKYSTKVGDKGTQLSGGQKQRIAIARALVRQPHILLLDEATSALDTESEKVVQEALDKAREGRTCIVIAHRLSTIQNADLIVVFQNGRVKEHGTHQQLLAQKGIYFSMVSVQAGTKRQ
A short description of data set [2]: Quantum yield for generation of singlet oxygen (direct luminescence detection, MeOH). It is filed as physicochemical. As to conditions: rose bengal as a standard.
Data set [3] in a line: Fluorescence quantum yields and radiative lifetimes. Type of data set: physicochemical. Conditions: for Quantum yield for fluorescence φF ± sd: rhodamine 6G as a standard.
Data set [4] deals with Pgp-expressing CR1R12 cells. Put plainly: Dye uptake into cell monolayers, CR1R12. It is filed as cell-based, Chinese hamster. Conditions: for Effect of verapamil on intracellular dye uptake: dye 1×10−5 M, 7×10−6 M verapamil 2 h before dye.
The subject of data set [5] is AUXB1 cells. In words: Dye uptake into cell monolayers, AUXB1. Type of data set: cell-based, Chinese hamster. As to conditions: dye 1×10−5 M for 1 h, 7×10−6 M verapamil.
A short description of data set [6]: n-Octanol/water partition coefficient. Conditions: pH-6 phosphate buffer as the aqueous phase.
The nature of data set [7]: Reduction potential by cyclic voltammetry. As to conditions: in CH2Cl2, 0.2N Bu4NBF4; vs. ferrocene/ferrocinium couple (E° = +0.40 V).
Data set [8] can be described thus: Absorption and fluorescence maxima in MeOH. Conditions: for Fluorescence maximum λF: excitation at 532 nm; for Bathochromic shift in λmax: compared to TMR-O.
Data set [9] concerns CR1R12 cells. Put plainly: Photoradiation of cell cultures (cell viability), CR1R12. Conditions: for Phototoxicity (cell viability): 5.0 J cm−2 light.
Method: (§1) Cell lines were maintained in passage culture on 60-mm diameter polystyrene dishes (Corning Costar, Corning, N.Y.) in 4.0 mL Minimum Essential Medium (α-MEM) supplemented with 10% fetal bovine serum (FBS), 50 units mL^−1 penicillin G, 50 ug ml^−1 streptomycin and 1.0 ug mL^−1 Fungizone® (complete medium). Only cells from passages 1-10 were used for experiments. A stock of cells, passages 1-4, were maintained at −86° C. to initiate the experimental cultures. Cultures were maintained at 37° C. in a 5% CO2 humidified atmosphere (Forma Scientific, Marietta, Ohio). […] Cell counts were performed using a particle counter (Model ZM, Coulter Electronics, Hialeah, Fla.).
(§2) Photoradiation of Cell Cultures: Cell lines, AUXB1 or CR1R12, were seeded on 96-well plates in 200 μL/well α-MEM at 1-4×10^4 cells/well. Rhodamine analogues were then added directly to the cell culture medium at various concentrations and incubated for 2 h in the dark as above. The medium was then removed and 200 μL α-MEM minus FBS and phenol red (clear medium) were added to each well. One plate, with the lid removed, was then exposed to 350-750 nm light delivered at 1.4 mW cm^−2 for 1 h (5.0 J cm^−2) from a filtered halogen source while a parallel plate was kept in the dark during the irradiation period. Immediately following irradiation the clear medium was replaced with complete medium and the monolayers were incubated for an additional 24-h period. Subsequently, cells were trypsinized and counted using the Coulter counter to determine cell viability. Determination of cell viability by cell counting is performed according to an earlier method. […] Briefly, cells that detach from the surface of a culture plate stain with trypan blue, i.e. are nonviable, while all cells that remain attached to the surface exclude trypan blue, 100% viable. We were unable to seed new culture plates with cells that detached from the surface after treatment, while cells that remained attached after treatment continued to grow and multiply. Thus, we count only those cells that remain attached to the culture plate surface after treatment and compare those numbers with the cell numbers obtained from control cells, cells not exposed to either dye or light. Data are then expressed as percent cell viability, treated cell counts/control cell counts.
In data set [10] the test system is extracellular VSV. It is filed as cell-based.
Data set [11] has as its system intracellular VSV. Type of data set: cell-based.
For data set [12], the target named is Pgp in CR1R12 cells (Cricetulus griseus, UniProt P21448). In words: Calcein AM uptake, CR1R12. As to conditions: dye 1×10−5 M for 2 h in the dark. It is filed as cell-based, Chinese hamster.
Sequence of Pgp in CR1R12 cells (P21448 whole entry): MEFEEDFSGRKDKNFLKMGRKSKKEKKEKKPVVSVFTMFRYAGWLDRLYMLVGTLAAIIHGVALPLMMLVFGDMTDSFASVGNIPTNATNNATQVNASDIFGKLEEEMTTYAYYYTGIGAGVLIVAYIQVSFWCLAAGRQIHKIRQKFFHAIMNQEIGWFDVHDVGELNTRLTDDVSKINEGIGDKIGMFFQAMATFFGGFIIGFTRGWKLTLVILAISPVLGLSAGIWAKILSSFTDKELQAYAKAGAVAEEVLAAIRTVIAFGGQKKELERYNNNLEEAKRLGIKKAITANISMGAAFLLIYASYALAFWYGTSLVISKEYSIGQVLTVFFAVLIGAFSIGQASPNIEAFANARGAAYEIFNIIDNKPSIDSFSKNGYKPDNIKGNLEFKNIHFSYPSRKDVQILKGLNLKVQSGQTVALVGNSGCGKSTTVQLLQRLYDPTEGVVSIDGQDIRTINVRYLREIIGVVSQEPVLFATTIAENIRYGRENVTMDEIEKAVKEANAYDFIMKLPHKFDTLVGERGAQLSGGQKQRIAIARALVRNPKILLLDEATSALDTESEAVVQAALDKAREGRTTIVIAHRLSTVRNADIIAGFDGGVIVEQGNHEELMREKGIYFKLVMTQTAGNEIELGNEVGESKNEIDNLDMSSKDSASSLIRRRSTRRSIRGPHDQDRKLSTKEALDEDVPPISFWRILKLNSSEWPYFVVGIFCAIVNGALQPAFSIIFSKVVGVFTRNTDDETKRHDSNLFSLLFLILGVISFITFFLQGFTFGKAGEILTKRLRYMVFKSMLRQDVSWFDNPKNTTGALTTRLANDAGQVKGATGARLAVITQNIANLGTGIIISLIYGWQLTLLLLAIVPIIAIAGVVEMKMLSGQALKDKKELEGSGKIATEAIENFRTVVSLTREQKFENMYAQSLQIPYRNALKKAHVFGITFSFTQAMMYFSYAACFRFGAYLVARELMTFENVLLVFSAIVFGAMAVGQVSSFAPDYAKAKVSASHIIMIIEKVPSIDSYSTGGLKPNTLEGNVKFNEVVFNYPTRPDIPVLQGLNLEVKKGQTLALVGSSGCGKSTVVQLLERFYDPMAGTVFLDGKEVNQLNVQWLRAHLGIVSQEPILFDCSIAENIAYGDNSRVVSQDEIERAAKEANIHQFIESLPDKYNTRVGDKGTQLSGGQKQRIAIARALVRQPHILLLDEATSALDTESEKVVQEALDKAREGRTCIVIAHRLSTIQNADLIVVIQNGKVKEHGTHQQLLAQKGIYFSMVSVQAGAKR
The test system of data set [13] is AUXB1 cells. In words: Calcein AM uptake, AUXB1. It is filed as cell-based, Chinese hamster. As to conditions: higher concentrations of dye plus light exposure.
The conditions of data set [14]: pH 6.
In data set [15] the test system is CR1R12 cells.
Method: as §1, §2
Data set [16] concerns AUXB1 cells.
Method: as §1
Photoradiation of Cell Cultures: Cell lines, AUXB1 or CR1R12, were seeded on 96-well plates in 200 μL/well α-MEM at 1-4×10^4 cells/well. Rhodamine analogues were then added directly to the cell culture medium at various concentrations and incubated for 2 h in the dark as above. The medium was then removed and 200 μL α-MEM minus FBS and phenol red (clear medium) were added to each well. […] Subsequently, cells were trypsinized and counted using the Coulter counter to determine cell viability. […] Data are then expressed as percent cell viability, treated cell counts/control cell counts.
The mark [17] stands for this setting: over a wide range of concentrations.

On to `COC(=O)c1ccccc1-c1c2ccc(=N)cc-2oc2cc(N)ccc12` [Rh123, rhodamine 123], for which, in data set [1], the “Inhibition of Pgp function” value was “do not inhibit Pgp function” and the Pgp transport substrate entry is recorded as “transport substrates for Pgp”.
Regarding `CN(C)c1ccc2c(-c3ccccc3)c3ccc(=[N+](C)C)cc-3oc2c1` [TMR-O, Tetramethylrosamine, reference compound], the “Quantum yield for generation of singlet oxygen φ(1O2) ± sd” value in [2] is 0.08 and 0.08 ± 0.01. Moreover, in data set [3], the “Radiative lifetime τrad” value worked out at 2.1±0.1 ns; the “Quantum yield for fluorescence φF ± sd” value was 0.84 and 0.84 ± 0.01. In data set [4], the “Effect of verapamil on intracellular dye uptake” value is “verapamil enhances the uptake; also recorded: significantly enhanced”. Moreover, in data set [5], the “Intracellular dye accumulation in absence vs presence of verapamil” value is recorded as “similar”. Further, in data set [1], the “Inhibition of Pgp function” value was “do not inhibit Pgp function” and the Pgp transport substrate result is “transport substrates for Pgp”. Further, in [6], the “n-Octanol/water partition coefficient log P” value was 1.5. Also, the “Reduction potential E°” value in data set [7] is −0.94 V. In [8], the “Absorption maximum λmax” value was 552 nm, the “log ε at λmax” value amounted to 4.92 and the “Fluorescence maximum λF” value was found to be 575 nm. The “Phototoxicity (cell viability)” value in data set [9] (after 2 h 7×10−6 M verapamil) is given as “no significant phototoxicity”. In data set [9] (without verapamil), the “Phototoxicity (cell viability)” value is listed as “no significant phototoxicity”. The “Cell viability, dye alone in the dark” value in [9] (same conditions without light) was “no significant loss in cell viability”.
As for `CN(C)c1ccc2[s+]c3ccc(N(C)C)cc3c(-c3ccccc3)c2c1.[Cl-]` [TMR-S, 2,7-Bis-N,N-dimethylamino-9-phenylthioxanthylium Chloride], the “Quantum yield for generation of singlet oxygen φ(1O2) ± sd” value in data set [2] is 0.21 and 0.21 ± 0.02. Also, in data set [3], the “Radiative lifetime τrad” value is recorded as 1.5±0.1 ns; the “Quantum yield for fluorescence φF ± sd” value was 0.44 and 0.44 ± 0.01. In data set [10] (5 μM, 7.4 J cm−2 light, 20% hematocrit red cells), the “Inactivation of extracellular VSV” value is reported as “More than 8 log10”. The “Inactivation of intracellular VSV” value in [11] (50 μM and 7.4 J cm−2) is 1.5 log10. The “Increase in dye uptake in the presence of verapamil” value in data set [4] (dye 1×10−5 M for 1 h, 7×10−6 M verapamil) was “more than 3 fold”. Moreover, in data set [4], the “Effect of verapamil on intracellular dye uptake” value was “significantly enhanced”. Further, the “Intracellular dye accumulation in absence vs presence of verapamil” value in data set [5] is “similar”. The “Change in intracellular accumulation of CAM” value in [12] is reported as “no significant change”. Moreover, the CAM uptake entry in data set [13] is reported as “virtually abolished CAM uptake”. Besides, in data set [14], the “n-Octanol/water partition coefficient log P” value was found to be 1.2. In addition, the “Cell viability, dye alone in the dark” value in [15] was “no significant loss in cell viability”. In addition, the “Reduction potential E°” value in [7] is given as −0.79 V. For the same compound, in [8], the “Absorption maximum λmax” value was determined as 571 nm, the “log ε at λmax” value came to 4.70, the “Bathochromic shift in λmax” value turned out to be 20 nm and the “Fluorescence maximum λF” value worked out at 599 nm. The “Phototoxicity (cell viability)” value in data set [9] (after 2 h 7×10−6 M verapamil) is given as “significant cytotoxicity”.
`CN(C)c1ccc2[se+]c3ccc(N(C)C)cc3c(-c3ccccc3)c2c1.[Cl-]` [TMR-Se, 2,7-Bis-N,N-dimethylamino-9-phenylselenoxanthylium Chloride]: the “Quantum yield for generation of singlet oxygen φ(1O2) ± sd” value in [2] is 0.87 and 0.87 ± 0.01. Also, in data set [3], the “Radiative lifetime τrad” value is “approximately 50 ps”; the “Quantum yield for fluorescence φF ± sd” value was 0.009 and 0.009 ± 0.001. Moreover, the “Inactivation of extracellular VSV” value in data set [10] (1 μM, 2 J cm−2 light, 20% hematocrit red cells) is > 7.4 log10. Further, in [10] (5 μM, 2 J cm−2 light, 45% hematocrit red cells), the “Inactivation of extracellular VSV” value is > 7.4 log10. Moreover, the “Inactivation of intracellular VSV” value in data set [11] (under the TMR-Se conditions of b117 (1-5 μM, 2 J cm−2)) is on record as 0.5 log10. The “Change in intracellular accumulation of CAM” value in [12] is “no significant change”. Besides, the CAM uptake result in data set [13] is recorded as “virtually abolished CAM uptake”. Further, the “n-Octanol/water partition coefficient log P” value in [14] is 1.1. In data set [15], the “Cell viability, dye alone in the dark” value is reported as “no significant loss in cell viability”. The “Cell viability, dye alone in the dark” value in [16] is “no significant loss in cell viability”. In data set [16] (AUXB1 cells, light, with or without 7×10−6 M verapamil), the “Phototoxicity (cell viability)” value is listed as “equally susceptible to phototoxicity”. In data set [7], the “Reduction potential E°” value was −0.77 V. Besides, in data set [8], the “Absorption maximum λmax” value was 582 nm, the “log ε at λmax” value is recorded as 4.84, the “Bathochromic shift in λmax” value was 30 nm and the “Fluorescence maximum λF” value came to 608 nm. Besides, in data set [9] (after 2 h 7×10−6 M verapamil), the “Phototoxicity (cell viability)” value was “significant cytotoxicity; also recorded: significant phototoxicity”.
With `CN(C)c1ccc2sc3ccc(N(C)C)cc3c(=O)c2c1` [compound 2], in [10] (setting [17]), the Extracellular virucidal activity is < 2.5 log10. The Intracellular virucidal activity in [11] (setting [17]) is < 0.5 log10.
